The source of these data is US10604531B2, “Enhancer of zeste homolog 2 inhibitors” (GLAXOSMITHKLINE INTELLECTUAL PROPERTY (NO.2) LIMITED, priority 2016, dated 2020).

In data set [1] the target is EZH2 within the PRC2 complex (FLAG-EZH2, EED, SUZ12, RbAp48, AEBP2) (Homo sapiens (Human), UniProt Q15910). In words: EZH2 methyltransferase scintillation proximity assay (SPA), PRC2 complex. To be noted: 3H-SAM, biotinylated histone H3K27 peptide, 60 min at room temperature; values of 10 nM approach the assay's limit of detection. In kind it is biochemical. The method, then:
Compounds contained herein were evaluated for their ability to inhibit the methyltransferase activity of EZH2 within the PRC2 complex. Human PRC2 complex was prepared by co-expressing each of the 5 member proteins (FLAG-EZH2, EED, SUZ12, RbAp48, AEBP2) in Sf9 cells followed by co-purification. Enzyme activity was measured in a scintillation proximity assay (SPA) where a tritiated methyl group is transferred from 3H-SAM to a lysine residue on a biotinylated, unmethylated peptide substrate derived from histone H3. The peptides were captured on streptavidin-coated SPA beads and the resulting signal was read on a ViewLux plate reader.
Part A. Compound Preparation
• 1. Prepare 10 mM stock of compounds from solid in 100% DMSO. • 2. Set up an 11-point serial dilution (1:4 dilution, top concentration 10 mM) in 100% DMSO for each test compound in a 384 well plate leaving columns 6 and 18 for DMSO controls. • 3. Dispense 10 nL of compound from the dilution plate into reaction plates (Corning, 384-well polystyrene NBS, Cat #3673). Part B. Reagent Preparation Prepare the following solutions: • 1. 1× Base Buffer, 50 mM Tris-HCl, pH 8, 2 mM MgCl2: Per 1 L of base buffer, combine 1 M Tris-HCl, pH 8 (50 mL), 1 M MgCl2 (2 mL), and distilled water (948 mL). • 2. 1× Assay Buffer: Per 10 mL of 1× Assay Buffer, combine 1× Base Buffer (9.96 mL), 1 M DTT (40 uL), and 10% Tween-20 (1 uL) to provide a final concentration of 50 mM Tris-HCl, pH 8, 2 mM MgCl2, 4 mM DTT, 0.001% Tween-20. • 3. 2× Enzyme Solution: Per 10 mL of 2× Enzyme Solution, combine 1× Assay Buffer (9.99 mL) and 3.24 uM EZH2 5 member complex (6.17 uL) to provide a final enzyme concentration of 1 nM. • 4. SPA Bead Solution: Per 1 mL of SPA Bead Solution, combine Streptavidin coated SPA beads (PerkinElmer, Cat # RPNQ0261, 40 mg) and 1× Assay Buffer (1 mL) to provide a working concentration of 40 mg/mL. • 5. 2× Substrate Solution: Per 10 mL of 2× Substrate Solution, combine 40 mg/mL SPA Bead Solution (375 uL), 1 mM biotinylated histone H3K27 peptide (200 uL), 12.5 uM 3H-SAM (240 uL; 1 mCi/mL), 1 mM cold SAM (57 uL), and 1× Assay Buffer (9.13 mL) to provide a final concentration of 0.75 mg/mL SPA Bead Solution, 10 uM biotinylated histone H3K27 peptide, 0.15 uM 3H-SAM (˜12 uCi/mL 3H-SAM), and 2.85 uM cold SAM. • 6. 2.67× Quench Solution: Per 10 mL of 2.67× Quench Solution, combine 1× Assay Buffer (9.73 mL) and 10 mM cold SAM (267 uL) to provide a final concentration of 100 uM cold SAM. Part C. Assay Reaction in 384-well Grenier Bio-One Plates Compound Addition • 1. Stamp 10 nL/well of 1000× Compound to test wells (as noted above). • 2. Stamp 10 nL/well of 100% DMSO to columns 6 & 18 (high and low controls, respectively). Assay • 1. Dispense 5 uL/well of 1× Assay Buffer to column 18 (low control reactions). • 2. Dispense 5 uL/well of 2× Substrate Solution to columns 1-24 (note: substrate solution should be mixed to ensure homogeneous bead suspension before dispensing into matrix reservoir). • 3. Dispense 5 uL/well of 2× Enzyme Solution to columns 1-17, 19-24. • 4. Incubate the reaction for 60 min at room temperature. Quench • 1. Dispense 6 uL/well of the 2.67× Quench Solution to columns 1-24. • 2. Seal assay plates and spin for ˜1 min at 500 rpm. • 3. Dark adapt plates in the ViewLux instrument for 15-60 min. Read Plates • 1. Read the assay plates on the Viewlux Plate Reader utilizing the 613 nm emission filter or clear filter (300 s exposure). Reagent addition can be done manually or with automated liquid handler. Results
Percent inhibition was calculated relative to the DMSO control for each compound concentration and the resulting values were fit using standard IC50 fitting parameters within the ABASE data fitting software package.
(In a scintillation proximity assay essentially only radioactivity close to the scintillant gives light.)

The conditions of data set [2]: for XRPD after DVS experiment: form change or change in crystallinity: post DVS sample.

Chain of EZH2 within the PRC2 complex (FLAG-EZH2, EED, SUZ12, RbAp48, AEBP2) (Q15910 whole entry): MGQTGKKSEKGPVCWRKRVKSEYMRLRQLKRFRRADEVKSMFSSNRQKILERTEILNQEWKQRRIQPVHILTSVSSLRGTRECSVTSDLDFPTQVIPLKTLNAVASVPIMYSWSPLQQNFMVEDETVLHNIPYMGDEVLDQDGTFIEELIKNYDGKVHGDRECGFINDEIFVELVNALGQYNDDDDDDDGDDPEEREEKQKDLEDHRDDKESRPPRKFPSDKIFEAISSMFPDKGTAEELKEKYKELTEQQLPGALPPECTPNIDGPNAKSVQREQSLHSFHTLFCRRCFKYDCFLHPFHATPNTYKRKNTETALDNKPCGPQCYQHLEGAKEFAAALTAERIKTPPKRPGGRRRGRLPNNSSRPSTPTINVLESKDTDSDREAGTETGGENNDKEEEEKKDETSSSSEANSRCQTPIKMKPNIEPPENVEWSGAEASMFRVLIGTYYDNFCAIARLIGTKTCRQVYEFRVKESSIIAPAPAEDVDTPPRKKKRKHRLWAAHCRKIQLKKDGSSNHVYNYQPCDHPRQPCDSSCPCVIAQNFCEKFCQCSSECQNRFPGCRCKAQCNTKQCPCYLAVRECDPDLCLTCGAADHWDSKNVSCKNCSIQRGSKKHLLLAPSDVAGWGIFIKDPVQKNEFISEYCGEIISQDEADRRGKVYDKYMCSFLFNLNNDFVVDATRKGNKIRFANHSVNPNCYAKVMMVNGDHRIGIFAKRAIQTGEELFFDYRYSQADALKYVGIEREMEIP
Chain of EZH2 within the PRC2 complex (FLAG-EZH2, EED, SUZ12, RbAp48, AEBP2) (O75530 whole entry partner): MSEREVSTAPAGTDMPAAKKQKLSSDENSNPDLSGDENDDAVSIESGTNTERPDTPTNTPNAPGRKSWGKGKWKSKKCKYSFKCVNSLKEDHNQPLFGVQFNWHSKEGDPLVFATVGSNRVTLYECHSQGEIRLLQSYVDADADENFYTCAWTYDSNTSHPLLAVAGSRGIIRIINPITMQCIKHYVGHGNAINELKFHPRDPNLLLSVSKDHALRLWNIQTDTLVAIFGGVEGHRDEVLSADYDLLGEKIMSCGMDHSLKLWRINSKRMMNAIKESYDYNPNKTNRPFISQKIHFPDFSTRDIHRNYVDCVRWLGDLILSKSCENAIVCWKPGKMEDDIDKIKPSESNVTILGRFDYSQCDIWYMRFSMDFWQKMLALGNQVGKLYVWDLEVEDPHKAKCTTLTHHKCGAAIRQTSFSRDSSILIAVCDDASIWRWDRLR
Chain of EZH2 within the PRC2 complex (FLAG-EZH2, EED, SUZ12, RbAp48, AEBP2) (Q15022 whole entry partner): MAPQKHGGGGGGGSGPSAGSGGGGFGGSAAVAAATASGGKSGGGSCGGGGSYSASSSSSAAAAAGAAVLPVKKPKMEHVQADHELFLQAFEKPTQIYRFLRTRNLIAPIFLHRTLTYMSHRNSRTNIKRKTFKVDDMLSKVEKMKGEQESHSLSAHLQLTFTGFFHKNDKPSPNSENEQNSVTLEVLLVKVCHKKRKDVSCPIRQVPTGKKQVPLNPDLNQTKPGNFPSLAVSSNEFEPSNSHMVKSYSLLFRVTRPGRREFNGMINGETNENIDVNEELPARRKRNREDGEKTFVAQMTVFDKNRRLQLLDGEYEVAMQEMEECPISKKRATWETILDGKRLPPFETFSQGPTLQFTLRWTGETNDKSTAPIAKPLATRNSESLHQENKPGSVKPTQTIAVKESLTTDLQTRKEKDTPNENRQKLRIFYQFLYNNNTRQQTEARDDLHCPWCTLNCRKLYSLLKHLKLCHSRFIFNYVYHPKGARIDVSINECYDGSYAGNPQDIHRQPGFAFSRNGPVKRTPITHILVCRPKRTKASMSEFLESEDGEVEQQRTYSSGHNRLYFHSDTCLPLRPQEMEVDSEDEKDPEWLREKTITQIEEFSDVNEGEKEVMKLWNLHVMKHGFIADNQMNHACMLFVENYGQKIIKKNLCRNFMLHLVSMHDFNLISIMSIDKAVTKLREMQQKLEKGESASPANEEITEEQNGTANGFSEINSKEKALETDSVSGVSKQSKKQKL
Chain of EZH2 within the PRC2 complex (FLAG-EZH2, EED, SUZ12, RbAp48, AEBP2) (Q09028 whole entry partner): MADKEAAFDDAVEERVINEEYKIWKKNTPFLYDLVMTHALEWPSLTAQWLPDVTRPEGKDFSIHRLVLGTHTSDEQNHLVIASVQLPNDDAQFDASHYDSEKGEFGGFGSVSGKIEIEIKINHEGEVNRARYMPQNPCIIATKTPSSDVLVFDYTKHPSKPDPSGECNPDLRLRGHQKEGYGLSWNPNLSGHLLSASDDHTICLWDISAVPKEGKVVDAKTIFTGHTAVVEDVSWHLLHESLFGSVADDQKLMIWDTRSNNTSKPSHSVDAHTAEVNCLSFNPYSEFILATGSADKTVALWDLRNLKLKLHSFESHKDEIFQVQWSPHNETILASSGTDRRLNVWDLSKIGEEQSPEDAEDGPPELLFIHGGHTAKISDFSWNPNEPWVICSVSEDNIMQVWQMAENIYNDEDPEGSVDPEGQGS
Chain of EZH2 within the PRC2 complex (FLAG-EZH2, EED, SUZ12, RbAp48, AEBP2) (Q6ZN18 whole entry partner): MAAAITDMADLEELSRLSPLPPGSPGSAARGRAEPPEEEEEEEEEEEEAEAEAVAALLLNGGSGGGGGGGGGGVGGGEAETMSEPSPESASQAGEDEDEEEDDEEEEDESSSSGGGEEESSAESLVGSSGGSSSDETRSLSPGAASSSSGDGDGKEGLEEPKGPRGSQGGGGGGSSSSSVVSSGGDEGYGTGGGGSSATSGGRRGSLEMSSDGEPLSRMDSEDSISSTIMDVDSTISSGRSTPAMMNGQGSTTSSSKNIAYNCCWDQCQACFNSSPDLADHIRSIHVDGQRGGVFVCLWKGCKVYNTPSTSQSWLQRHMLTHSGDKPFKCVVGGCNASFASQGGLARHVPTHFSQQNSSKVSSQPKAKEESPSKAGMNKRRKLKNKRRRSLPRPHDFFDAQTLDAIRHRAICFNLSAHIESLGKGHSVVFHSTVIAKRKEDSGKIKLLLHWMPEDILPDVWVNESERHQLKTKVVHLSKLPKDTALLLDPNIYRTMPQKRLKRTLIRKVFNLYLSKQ

The term IC50 denotes the concentration needed to halve the response being measured. A higher IC50 goes with weaker potency. As for `Cc1cc(C)c(CN2CCCc3sc([C@H](C)C4CCN(CC(C)(C)C)CC4)c(C)c3C2=O)c(=O)[nH]1` [Example 1, (R)-5-((4,6-Dimethyl-2-oxo-1,2-dihydropyridin-3-yl)methyl)-3-methyl-2-(1-(1-neopentylpiperidin-4-yl)ethyl)-5,6,7,8-tetrahydro-4H-thieno[3,2-c]azepin-4-one], the IC50 in data set [1] is ≤ 10 nM. On the same count and under the same terms, for `CCC(C)(C)CN1CCC([C@@H](C)c2sc3c(c2C)C(=O)N(Cc2c(C)cc(C)[nH]c2=O)CCC3)CC1` [Example 5, (R)-5-((4,6-Dimethyl-2-oxo-1,2-dihydropyridin-3-yl)methyl)-2-(1-(1-(2,2-dimethylbutyl)piperidin-4-yl)ethyl)-3-methyl-5,6,7,8-tetrahydro-4H-thieno[3,2-c]azepin-4-one] the value was ≤ 10 nM. Still for that read-out and setting: under `Cc1cc(C)c(CN2CCCc3sc([C@H](C)C4CCN(CC5CCC5)CC4)c(C)c3C2=O)c(=O)[nH]1` [Example 2, (R)-2-(1-(1-(Cyclobutylmethyl)piperidin-4-yl)ethyl)-5-((4,6-dimethyl-2-oxo-1,2-dihydropyridin-3-yl)methyl)-3-methyl-5,6,7,8-tetrahydro-4H-thieno[3,2-c]azepin-4-one] stands ≤ 10 nM. The same measure, in the same setting: for `Cc1cc(C)c(CN2CCCc3sc([C@H](C)C4CCN(CC5(C)CC5)CC4)c(C)c3C2=O)c(=O)[nH]1` [Example 11, (R)-5-((4,6-Dimethyl-2-oxo-1,2-dihydropyridin-3-yl)methyl)-3-methyl-2-(1-(1-((1-methylcyclopropyl)methyl)piperidin-4-yl)ethyl)-5,6,7,8-tetrahydro-4H-thieno[3,2-c]azepin-4-one] the value was ≤ 10 nM. `Cc1cc(C)c(CN2CCCc3sc([C@H](C)C4CCN(CC(C)C)CC4)c(C)c3C2=O)c(=O)[nH]1` [Example 3, (R)-5-((4,6-Dimethyl-2-oxo-1,2-dihydropyridin-3-yl)methyl)-2-(1-(1-isobutylpiperidin-4-yl)ethyl)-3-methyl-5,6,7,8-tetrahydro-4H-thieno[3,2-c]azepin-4-one]: the IC50 in data set [1] was ≤ 10 nM. Consider `Cc1cc(C)c(CN2CCCc3sc([C@H](C)C4CCN(CC5(C)CCC5)CC4)c(C)c3C2=O)c(=O)[nH]1` [Example 10, (R)-5-((4,6-Dimethyl-2-oxo-1,2-dihydropyridin-3-yl)methyl)-3-methyl-2-(1-(1-((1-methylcyclobutyl)methyl)piperidin-4-yl)ethyl)-5,6,7,8-tetrahydro-4H-thieno[3,2-c]azepin-4-one], for which the IC50 in data set [1] was ≤ 10 nM.

With `Cc1cc(C)c(CN2CCCc3sc([C@H](C)C4CCN(CC5(C)CCCC5)CC4)c(C)c3C2=O)c(=O)[nH]1` [Example 8, (R)-5-((4,6-Dimethyl-2-oxo-1,2-dihydropyridin-3-yl)methyl)-3-methyl-2-(1-(1-((1-methylcyclopentyl)methyl)piperidin-4-yl)ethyl)-5,6,7,8-tetrahydro-4H-thieno[3,2-c]azepin-4-one], the IC50 in data set [1] is ≤ 10 nM. Still for that read-out and setting: under `Cc1cc(C)c(CN2CCCc3sc([C@H](C)C4CCN(CC5CCCC5)CC4)c(C)c3C2=O)c(=O)[nH]1` [Example 4, (R)-2-(1-(1-(Cyclopentylmethyl)piperidin-4-yl)ethyl)-5-((4,6-dimethyl-2-oxo-1,2-dihydropyridin-3-yl)methyl)-3-methyl-5,6,7,8-tetrahydro-4H-thieno[3,2-c]azepin-4-one] stands ≤ 10 nM.

For `Cc1cc(C)c(CN2CCCc3sc([C@H](C)C4CCN(CC(C)(C)F)CC4)c(C)c3C2=O)c(=O)[nH]1` [Example 6, (R)-5-((4,6-Dimethyl-2-oxo-1,2-dihydropyridin-3-yl)methyl)-2-(1-(1-(2-fluoro-2-methylpropyl)piperidin-4-yl)ethyl)-3-methyl-5,6,7,8-tetrahydro-4H-thieno[3,2-c]azepin-4-one], the IC50 in data set [1] was ≤ 10 nM. On to `Cc1cc(C)c(CN2CCCc3sc([C@H](C)C4CCN(CC5CC5)CC4)c(C)c3C2=O)c(=O)[nH]1` [Example 7, (R)-2-(1-(1-(Cyclopropylmethyl)piperidin-4-yl)ethyl)-5-((4,6-dimethyl-2-oxo-1,2-dihydropyridin-3-yl)methyl)-3-methyl-5,6,7,8-tetrahydro-4H-thieno[3,2-c]azepin-4-one], for which the IC50 in data set [1] is ≤ 10 nM. For `Cc1cc(C)c(CN2CCCc3sc([C@H](C)C4CCN(CC5(C)CCC5)CC4)c(C)c3C2=O)c(=O)[nH]1.Cl` [hydrochloric acid salt of (R)-5-((4,6-dimethyl-2-oxo-1,2-dihydropyridin-3-yl)methyl)-3-methyl-2-(1-(1-((1-methylcyclobutyl)methyl)piperidin-4-yl)ethyl)-5,6,7,8-tetrahydro-4H-thieno[3,2-c]azepin-4-one], the hygroscopicity entry in data set [2] (DVS isotherm 5-95% RH) is on record as “low level of hygroscopicity”. The DVS moisture uptake in data set [2] (between 5-75% RH) is recorded as ~0.5%. Also, the “DVS total uptake of water” value in data set [2] (from 5-95% RH) turned out to be 0.6%. In addition, the “XRPD after DVS experiment: form change or change in crystallinity” value in data set [2] is reported as “did not show a change in crystal form or crystallinity”. As to `Cc1cc(C)c(CN2CCCc3sc([C@H](C)C4CCN(CC56CCC(CC5)CC6)CC4)c(C)c3C2=O)c(=O)[nH]1` [Example 9, (R)-2-(1-(1-(Bicyclo[2.2.2]octan-1-ylmethyl)piperidin-4-yl)ethyl)-5-((4,6-dimethyl-2-oxo-1,2-dihydropyridin-3-yl)methyl)-3-methyl-5,6,7,8-tetrahydro-4H-thieno[3,2-c]azepin-4-one], the IC50 in data set [1] was ≤ 10 nM.

Turning to `Cc1cc(C)c(CN2CCCc3sc([C@H](C)C4CCN(CC(C)(C)C)CC4)c(C)c3C2=O)c(=O)[nH]1.Cl` [hydrochloric acid salt of (R)-5-((4,6-dimethyl-2-oxo-1,2-dihydropyridin-3-yl)methyl)-3-methyl-2-(1-(1-neopentylpiperidin-4-yl)ethyl)-5,6,7,8-tetrahydro-4H-thieno[3,2-c]azepin-4-one], the “DVS total moisture uptake” value in data set [2] (first cycle from 40-75% RH) is on record as 0.5%. Besides, in data set [2], the “XRPD after DVS experiment: form change or change in crystallinity” value is “did not indicate a form change or change in crystallinity”. Moreover, in data set [2] (second cycle, between 80-90% RH), the DVS decrease came out at 0.4%. Further, the DVS sorption in data set [2] (second cycle, from 5-80% RH) was determined as 1.0%.
